Tested on: CCRF-CEM cells
Test: Test C: anti-cancer assay, CCRF-CEM cell viability by MTS reagent
Format: cell-based, human
Settings: 48 hr incubation at 37° C., MTS reagent 4 hr, absorbance at 490 nm, triplicate
Method: The anti-cancer properties of the compounds of the invention can be evaluated using the following assay.
CCRF-CEM cells were grown in medium containing RPMI 1640 supplemented with 10% heat-inactivated fetal bovine serum, penicillin (124 units/ml of medium) and streptomycin (0.125 mg/ml of medium). A stock solution of […] was made using Trypan Blue Dye Exclusion Method as a means of counting the cells. The following concentrations of test compounds were made: 250, 200, 100, 10, 1, 0.1, 0.01 and 0.001 μM. The cell stock (50 μl, 5×10^4 cells) was incubated with 50 μl of each of the compounds in triplicate in a 96-well plate. The cells were incubated with the compound at 37° C. in a 10% CO2-90% air environment for 48 hr. A negative control was also done where the cells were incubated in drug-free medium.
Cell viability was determined by adding 20 μl of MTS reagent and incubating the cells for 4 hr after which the absorbance was found at 490 nm.

- IC50: 384 ± 134 µM
SMILES: Nc1ncnc2c1ncn2[C@@H]1O[C@H](CO)[C@@H](O)[C@@H]1O [Ara-A, 9-beta-D-arabinofuranosyladenosine]

From patent US8815830B2, “Nucleosides with antiviral and anticancer activity” (Regents of the University of Minnesota, priority 2004, dated 2014)
